Laboratory results taken from patent publication US8969294B2 (Istituto di Recerche di Biologia Molecolare P. Angeletti …, priority 2008, dated 2015).
Square brackets hold non-standard residues; d marks the D form. Ends that are not written are not given here. Aib = CC(C)(N)C(=O)O

What was measured:
[1] = DIO mice, i.p. once a week for 2 weeks (Example 30); type: in vivo; settings: for blood glucose levels in response to a glucose injection: glucose 24 hours after peptide
Description: Changes in body weight of and food intake by the mice were measured 0, 1, 3, 5, 7, 8, 10, 12, and 14 days after injection. Blood glucose levels of the mice were monitored throughout the 14 days. Glucose tolerance tests were performed by injecting a 25% glucose in saline solution 1 hour or 24 hours after administration of the acylated or pegylated peptide and measuring blood glucose levels at −60, 0, 15, 30, 60, or 120 min after the glucose injection.

[2] = molecular target: GLP-1 receptor (Homo sapiens, UniProt P43220); test: Functional assay, cAMP synthesis: luciferase reporter in HEK293 cells co-transfected with GLP-1 receptor
Sequence of GLP-1 receptor (P43220 24-463, species assumed): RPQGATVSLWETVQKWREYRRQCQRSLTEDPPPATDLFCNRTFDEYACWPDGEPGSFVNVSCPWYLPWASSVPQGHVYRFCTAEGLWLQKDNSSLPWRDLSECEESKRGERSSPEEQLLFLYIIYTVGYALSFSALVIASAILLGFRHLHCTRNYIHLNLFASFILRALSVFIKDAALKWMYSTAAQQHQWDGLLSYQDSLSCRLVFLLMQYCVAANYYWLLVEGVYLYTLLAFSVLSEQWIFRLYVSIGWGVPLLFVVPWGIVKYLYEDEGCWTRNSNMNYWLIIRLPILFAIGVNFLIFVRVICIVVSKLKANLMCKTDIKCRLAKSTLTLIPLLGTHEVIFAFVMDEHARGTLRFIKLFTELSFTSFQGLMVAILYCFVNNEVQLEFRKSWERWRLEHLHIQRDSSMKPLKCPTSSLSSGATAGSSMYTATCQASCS
Description: (§1) Peptide absorbance readings were obtained from UV Absorbance measurements at 280 nm on a Genesys 6 Spectrophotometer (Thermo Electron Corporation). Beer's Law was used to calculate solution concentrations based on the number of tryptophan and tyrosine residues in each analog. At the end of the incubation, 100 μL LucLite luminescence substrate reagent was added to each well, the plate sealed and shaken, and placed into a Wallac Trilux luminescence counter for cAMP detection.
(§2) HEK293 cells were co-transfected with the GcgR or GLP-1R cDNAs and a luciferase reporter gene-linked to a cAMP response element (CRE). […] The plate was incubated for 10 min in the dark and light output was quantified on a MicroBeta1450 liquid scintillation counter (Perkin-Elmer, Wellesley, Mass.).

[3] = molecular target: glucagon receptor (Homo sapiens, UniProt P47871); test: Functional assay, cAMP synthesis: luciferase reporter in HEK293 cells co-transfected with glucagon receptor
Sequence of glucagon receptor (P47871 26-477): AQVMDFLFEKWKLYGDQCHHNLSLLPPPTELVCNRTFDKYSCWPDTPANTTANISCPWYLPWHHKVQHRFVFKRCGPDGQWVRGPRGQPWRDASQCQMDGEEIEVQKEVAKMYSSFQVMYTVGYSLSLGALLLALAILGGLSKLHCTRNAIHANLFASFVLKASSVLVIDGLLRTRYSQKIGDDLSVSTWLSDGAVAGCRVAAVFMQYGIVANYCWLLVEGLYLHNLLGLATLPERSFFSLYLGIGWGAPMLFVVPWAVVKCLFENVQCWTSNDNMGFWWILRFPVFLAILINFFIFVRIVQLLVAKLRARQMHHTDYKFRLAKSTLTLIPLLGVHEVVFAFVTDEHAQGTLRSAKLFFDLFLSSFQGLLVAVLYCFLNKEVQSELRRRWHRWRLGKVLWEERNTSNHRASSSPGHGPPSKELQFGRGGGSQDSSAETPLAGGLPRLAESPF
Description: as §1, §2

[4] = Circular dichroism, percent helicity
[5] = Diet-induced obese C57B6 mice, s.c. Peptide X-PEG / Y-PEG (Examples 45-49); type: in vivo
Description: C57BI/6 mice were obtained from Jackson Laboratories and fed a diabetogenic diet from Research Diets, a high sucrose diet with 58% kcal from fat. Mice were single or group-housed on a 12:12-h light-dark cycle at 22° C. with free access to food and water. All studies were approved by and performed according to the guidelines of the Institutional Animal Care and Use Committee of the University of Cincinnati.
Whole body composition (fat and lean mass) was measured using NMR technology (EchoMRI, Houston, Tex.).
Energy intake and expenditure, as well as home-cage activity, were assessed by using a combined indirect calorimetry system (TSE Systems, Bad Homburg, Germany). Oxygen consumption and CO2 production were measured every 45 min for a total of 120 h (including 12 h of adaptation) to determine the respiratory quotient and energy expenditure. Food and water intake and meal patterns were determined continuously for 120 h at the same time as the indirect calorimetry assessments by integration of scales into the sealed cage environment. Meals were defined as food intake events with a minimum duration of 60 s, and a break of 300 s between food intake events. Home-cage locomotor activity was determined using a multidimensional infrared light beam system with beams scanning the bottom and top levels of the cage, and activity being expressed as beam breaks. Stationary motor activity (fidgeting) was defined as consecutive breaks of one single light beam at cage-bottom level, ambulatory movement as breaks of any two different light beams at cage-bottom level, and rearing as simultaneous breaks of light beams on both cage-bottom and the top level.
Blood was collected after a 6-h fast from tail veins using EDTA-coated Microvette tubes (Sarstedt, Nuremberg, Germany) and immediately chilled on ice. After 15 min of centrifugation at 3,000 g and 4° C., plasma was stored at −80° C. Plasma insulin was quantified by a radioimmunoassay from Linco (Sensitive Rat Insulin RIA; Linco Research, St. Charles, Mo.). Plasma TGs and cholesterol levels were measured by enzymatic assay kits (Thermo Electron, Waltham, Mass.). Samples were analyzed individually with the exception that pooled samples (0.25 ml) from 5 animals/group were subjected to fast-performance liquid chromatography (FPLC) gel filtration on two Superose 6 columns connected in series for lipoprotein separation. All assays were performed according to the manufacturer's instructions.
For the determination of glucose tolerance, mice were subjected to 6 h of fasting and injected intraperitoneally (i.p.) with 2 g glucose/kg body wt (50% D-glucose (Sigma) in 0.9% saline) for the glucose tolerance test (GTT). Tail blood glucose levels (mg/dl) were measured by using a hand-held glucometer (TheraSense Freestyle) before (0 min) and at 15, 30, 60, 90, and 120 min after injection.
The 40-kd pegylated peptides Peptides X-PEG and Y-PEG were used as single weekly subcutaneous (s.c) injections in diet-induced obese (D10) C57B6 mice.
Long-term effects of these lower doses on food intake (p=0.95; FIG. 29C) were less impressive than short-term effects with a higher dose (FIG. 27C).

[6] = Diet-induced obese rats, once-a-week injection, 3-week treatment; type: in vivo; settings: 70 nmol/kg/week, 3 weeks
Description: To determine if the principal phenomenon generalizes across species, both compounds were administered to diet-induced obese rats (mean weight 777.4+/−2.1 g, dose 70 nmol/kg/week, once-a-week injection, 3-week treatment).

[7] = GLP-1 receptor knock out (GLP-1R−/−) mice on high-fat diet, one month; type: in vivo
[8] = Glucose challenge in DIO mice after i.p. peptide (Examples 24, 25); type: in vivo; settings: 2, 20, 70 nmol/kg i.p.
Description: Diet-induced obesity (DIO) mice were injected intraperitoneally at the −15 min time point with 0.2, 2, 20, or 70 nmol/kg of one of the following:
A saline solution comprising 25% (v/v) glucose was injected at a dose of 1.5 g/kg of body weight at the 0 min time point. Blood glucose levels were measured at the −15, 0, 15, 30, 60, and 120 min time points.
DIO mice were injected intraperitoneally at the −24 hr time point with 70 nmol/kg of one of the following:
A saline solution comprising 25% (v/v) glucose was injected at a dose of 1.5 g/kg of body weight at the 0 min time point. Blood glucose levels were measured at the 0, 15, 30, 60, and 120 min time points.

[9] = DIO mice, s.c. daily for seven days (Example 32); type: in vivo
Description: The acylated glucagon analogs were as follows:

[10] = EC50, Glucagon Receptor, Table 13
[11] = EC50 at Glucagon Receptor, Table 17

## Peptide A K^10—C14: Peptide A of Example 20 with Lys10 acylated with a C14 fatty acid chain (H[Aib]QGTFTSDK(C14 fatty acid)SKYLDEQAAKEFIC(PEG 40 kDa)WLMNT-NH2)
[1]; 40 or 80 nmol/kg, 14 days
  total body weight: reduced as compared to mice injected with the vehicle control
[1]
  blood glucose levels in response to a glucose injection: lowered in comparison to vehicle control

## CSCC[C@H](NC(=O)[C@H](CC(C)C)NC(=O)[C@H](Cc1c[nH]c2ccccc12)NC(=O)[C@H](CCC(N)=O)NC(=O)[C@@H](NC(=O)[C@H](Cc1ccccc1)NC(=O)[C@H](CC(=O)O)NC(=O)[C@H](CCCCN)NC(=O)[C@H](C)NC(=O)[C@H](CCCNC(=N)N)NC(=O)[C@H](CCCNC(=N)N)NC(=O)[C@H](CCC(=O)O)NC(=O)[C@H](CC(=O)O)NC(=O)[C@H](CC(C)C)NC(=O)[C@H](Cc1ccc(O)cc1)NC(=O)[C@H](CCCCN)NC(=O)[C@H](CO)NC(=O)[C@H](Cc1ccc(O)cc1)NC(=O)[C@H](CC(=O)O)NC(=O)[C@H](CO)NC(=O)[C@@H](NC(=O)[C@H](Cc1ccccc1)NC(=O)[C@@H](NC(=O)CNC(=O)[C@H](CCC(N)=O)NC(=O)[C@H](CO)NC(=O)[C@@H](N)Cc1c[nH]cn1)[C@@H](C)O)[C@@H](C)O)C(C)C)C(=O)N[C@@H](CC(N)=O)C(=O)N[C@H](C(N)=O)[C@@H](C)O [E16, K20 Gluc-NH2, HSQGTFTSDYSKYLDERRAKDFVQW LMNTa]
[2]; Table 5
  Percent Potency Relative to Native Ligand, GLP-1Rec: 41.5%
[2]; Table 9
  Percent Potency Relative to Native Ligand, GLP-1Rec: 41.5%
[3]; [10]
  EC50: 180 pM
[3]; [11]
  EC50: 203 pM
[3]; Table 5
  Percent Potency Relative to Native Ligand, GRec: 130.1%
[3]; Table 9
  Percent Potency Relative to Native Ligand, GRec: 130.1%

## GLP-1
[4]; 10 mM phosphate buffer pH 5.9, 0% TFE
  Percent Helicity, 0% TFE: 14%
[4]; 10% TFE
  Percent Helicity, 10% TFE: 29%
[4]; 20% TFE
  Percent Helicity, 20% TFE: 55%

## H(Aib)QGTFTSDYSKYLDEQAAKEFICWLMNT-amide [Peptide Y-PEG]
[5]; 70 nmol/kg s.c. Days 0 and 7, evaluated Day 9
  total cholesterol: 63.0 mg/dL
[5]; Day 3
  blood glucose profile (AUC), i.p. glucose challenge: 14183±1072
[5]; weekly s.c. 70 nmol/kg, from Day 3
  Blood glucose levels, mean decrease: −32%
[5]; weekly s.c. 70 nmol/kg, one month
  decrease in body weight: 28.1%
[6]
  change in body weight: −20.58+/−2.26%
  change in fat mass: −33.76+/−4.76%
[7]
  body weight: significant decrease in body weight
  fat mass: significant decrease

## Peptide A K^10—C8: Chimera 2 with AIB2, Lys10 acylated with C8 fatty acid, Cys24 40K PEG (H[Aib]QGTFTSDK(C8 fatty acid)SKYLDEQAAKEFIC(PEG 40 kDa)WLMNT-NH2)
[8]
  ability to lower blood glucose, glucose challenge 15 min after peptide: greatest ability to lower blood glucose
[1]
  blood glucose levels in response to a glucose injection: lowered in comparison to vehicle control

## γE-γE-C16 Glucagon Amide: C16 Glucagon Amide with C16 attached to Lys10 through gamma-Glu-gamma-Glu dipeptide spacer
[9]; 100 nmol/kg
  fat mass on Day 7: lowest fat mass
[9]; 30 or 100 nmol/kg daily s.c.
  ability to cause weight loss: greatest ability to cause weight loss
[9]; higher dose
  decrease of blood glucose levels: worked as well as Liraglutide

## CCCCCCCCCCCCCC(=O)NCCCC[C@H](NC(=O)[C@H](CC(=O)O)NC(=O)[C@H](CO)NC(=O)[C@@H](NC(=O)[C@H](Cc1ccccc1)NC(=O)[C@@H](NC(=O)CNC(=O)[C@H](CCC(N)=O)NC(=O)[C@H](CO)NC(=O)C(C)(C)c1c[nH]cn1)[C@@H](C)O)[C@@H](C)O)C(=O)N[C@@H](CO)C(=O)N[C@@H](CCCCN)C(=O)N[C@@H](Cc1ccc(O)cc1)C(=O)N[C@@H](CC(C)C)C(=O)N[C@@H](CC(=O)O)C(=O)N[C@H]1CCC(=O)NCCCC[C@@H](C(=O)N[C@@H](CC(=O)O)C(=O)N[C@@H](Cc2ccccc2)C(=O)N[C@H](C(=O)N[C@@H](CCC(N)=O)C(=O)N[C@@H](Cc2c[nH]c3ccccc23)C(=O)N[C@@H](CC(C)C)C(=O)N[C@@H](CCSC)C(=O)N[C@@H](CC(N)=O)C(=O)N[C@H](C(N)=O)[C@@H](C)O)C(C)C)NC(=O)[C@H](C)NC(=O)[C@H](CCCNC(=N)N)NC(=O)[C@H](CCCNC(=N)N)NC1=O [DMIA1, K10(C14), [E16/K20]-Gluc Amide]
[2]
  % Activity of GLP-1: 30%
[3]; Table 21
  % Activity of Glucagon: 203.7%

## CCCCCCCCCCCCCCCC(=O)N[C@@H](CCC(=O)NCCCC[C@H](NC(=O)[C@H](CC(=O)O)NC(=O)[C@H](CO)NC(=O)[C@@H](NC(=O)[C@H](Cc1ccccc1)NC(=O)[C@@H](NC(=O)CNC(=O)[C@H](CCC(N)=O)NC(=O)C(C)(C)NC(=O)[C@@H](N)Cc1c[nH]cn1)[C@@H](C)O)[C@@H](C)O)C(=O)N[C@@H](CO)C(=O)N[C@@H](CCCCN)C(=O)N[C@@H](Cc1ccc(O)cc1)C(=O)N[C@@H](CC(C)C)C(=O)N[C@@H](CC(=O)O)C(=O)N[C@@H](CCC(=O)O)C(=O)N[C@@H](CCC(N)=O)C(=O)N[C@@H](C)C(=O)N[C@@H](C)C(=O)N[C@@H](CCCCN)C(=O)N[C@@H](CCC(=O)O)C(=O)N[C@@H](Cc1ccccc1)C(=O)N[C@H](C(=O)N[C@@H](C)C(=O)N[C@@H](Cc1c[nH]c2ccccc12)C(=O)N[C@@H](CC(C)C)C(=O)N[C@@H](CCSC)C(=O)N[C@@H](CC(N)=O)C(=O)N[C@H](C(N)=O)[C@@H](C)O)[C@@H](C)CC)C(=O)O [compound 645]
[3]; EC50 at Glucagon Receptor, Table 31
  EC50: 25 pM

## CCCCCCCCCCCCCCCCCC(=O)N[C@@H](Cc1c[nH]c2ccccc12)C(=O)NCCCC[C@H](NC(=O)[C@H](CC(=O)O)NC(=O)[C@H](CO)NC(=O)[C@@H](NC(=O)[C@H](Cc1ccccc1)NC(=O)[C@@H](NC(=O)CNC(=O)[C@H](CCC(N)=O)NC(=O)[C@H](CO)NC(=O)[C@@H](N)Cc1c[nH]cn1)[C@@H](C)O)[C@@H](C)O)C(=O)N[C@@H](CO)C(=O)N[C@@H](CCCCN)C(=O)N[C@@H](Cc1ccc(O)cc1)C(=O)N[C@@H](CC(C)C)C(=O)N[C@@H](CC(=O)O)C(=O)N[C@@H](CCC(=O)O)C(=O)N[C@@H](CCCNC(=N)N)C(=O)N[C@@H](CCCNC(=N)N)C(=O)N[C@@H](C)C(=O)N[C@@H](CCCCN)C(=O)N[C@@H](CC(=O)O)C(=O)N[C@@H](Cc1ccccc1)C(=O)N[C@H](C(=O)N[C@@H](CCC(N)=O)C(=O)N[C@@H](Cc1c[nH]c2ccccc12)C(=O)N[C@@H](CC(C)C)C(=O)N[C@@H](CCSC)C(=O)N[C@@H](CC(N)=O)C(=O)N[C@H](C(N)=O)[C@@H](C)O)C(C)C [E16 K20-glucagon-NH2 with K^10—W—C18]
[3]; [10]
  EC50: 50 pM
[3]; [11]
  EC50: 44 pM
